Test results reported in article PMC6272685, “Docking and Antiherpetic Activity of 2-Aminobenzo[de]-isoquinoline-1,3-diones” (Molecules, 2015).
Values after ≈ are worked out from the molar mass of the structure shown. “Also recorded” adds a separate entry of the source.

Tests used:
HSV-2 = assay: cytopathic effect inhibition assay against HSV-2 in Vero cells; type: cell-based, herpes simplex virus 2 (G strain); settings: for HSV-2 EC50: Vero cells, 48 h, cytopathic effect inhibition; for HSV-2 SI: ratio of CC50 to EC50; for antiviral activity against HSV-2 in words: in comparison with compounds 14–16; on activity class in terms of SI-values (HSV-2): key: inactive (SI < 2); active (SI ≥ 2)
Method: (§1) Vero cells (derived from the kidney of a normal African green monkey) were obtained from the American Type Culture Collection (ATCC, Manassas, VA, USA). The viral strains used were GHSV-UL46 for HSV-1 and the G strain for HSV-2. The Vero cells were propagated in Dulbecco’s modified Eagle’s medium (DMEM) supplemented with 10% heat-inactivated foetal bovine serum (FBS), 1% L-glutamine, HEPES buffer and 50 µg/mL gentamycin. All cells were maintained at 37 °C in a humidified atmosphere with 5% CO2 and were subcultured two times a week.
(§2) The antiviral screening was performed using a cytopathic effect inhibition assay at the Regional Center for Mycology and Biotechnology (RCMB, Al-Azhar University, Cairo, Egypt). This assay was selected to show specific inhibition of a biological function, that is, a cytopathic effect in susceptible mammalian cells. In brief, monolayers of 10,000 Vero cells adhering at the bottom of the wells in a 96-well microtiter plate were incubated for 24 h at 37 °C in a humidified incubator with 5% CO2. The plates were washed with fresh DMEM and challenged with 10^4 doses of herpes simplex 1 or 2 virus, and then the cultures were simultaneously treated with two-fold serial dilutions of the tested compound, starting from 500 µg/mL and going up to about 2 µg/mL (500, 250, 125, 62.5, …, 1.95 µg/mL) in a fresh maintenance medium; following this, they were incubated at 37 °C for 48 h. An infection control, as well as an untreated Vero cell control were made in the absence of tested compounds. […] Antiviral activity was determined by the inhibition of the cytopathic effect compared to a control, that is, the protection offered by the tested compound to the cells was scored. Three independent experiments were assessed, each containing four replicates per treatment.
(§3) After the incubation period, the media was aspirated, and then the cells were stained with a 1% crystal violet solution for 30 min. Thereafter, all excess stain was removed by rinsing the plates with tap water. The plates were allowed to dry, and then glacial acetic acid (30%) was added to all wells and mixed thoroughly. The absorbance of the plates was measured after gentle shaking on a microplate reader (Tecan Inc., Morrisville, NC, USA), at 590 nm. The viral inhibition rate was calculated as follows: [(ODtv − ODcv)/(ODcd − ODcv)] × 100% where ODtv, ODcv and ODcd indicate the absorbance of the tested compounds with virus-infected cells, the absorbance of the virus control and the absorbance of the cell control, respectively.
EC50 values were determined directly from the curve obtained by plotting the inhibition of the virus yield against the concentration of the samples. The selectivity index (SI) was calculated from the ratio of CC50 to EC50 in order to determine whether each compound had sufficient antiviral activity that exceeded its level of toxicity. This index is referred to as a therapeutic index, and it was also used to determine whether a compound warranted further study.

HSV-1 = assay: cytopathic effect inhibition assay against HSV-1 in Vero cells; type: cell-based, herpes simplex virus 1 (GHSV-UL46); settings: for HSV-1 EC50: Vero cells, 48 h, cytopathic effect inhibition; for antiviral activity against HSV-1 in words: in comparison with compounds 14–16; for HSV-1 SI: ratio of CC50 to EC50; for activity class in terms of SI-values (HSV-1): virus not named, agrees with HSV-1 SI of Table 2; on activity class in terms of SI-values (HSV-1): key: inactive (SI < 2); active (SI ≥ 2)
Method: as §1, §2, §3
EC50 values were determined directly from the curve obtained by plotting the inhibition of the virus yield against the concentration of the samples. […] This index is referred to as a therapeutic index, and it was also used to determine whether a compound warranted further study.

Vero cells = assay: cytotoxicity evaluation using viability assay (crystal violet); type: cell-based, African green monkey; settings: 48 h
Method: as §1
The Vero cell lines in the cytotoxicity assay were seeded in 96-well plates at a cell concentration of 1 × 10^4 cells per well in 100 µL of the growth medium. Fresh medium containing different concentrations of the tested sample was added after 24 h of seeding. Serial two-fold dilutions of the tested compound were added to confluent cell monolayers dispensed into 96-well, flat-bottomed microtiter plates (Falcon, Jersey, NJ, USA) using a multichannel pipette. The microtiter plates were incubated at 37 °C in a humidified incubator with 5% CO2 for a period of 48 h. Three wells were used for each concentration of the tested sample. Control cells were incubated without test samples and with or without DMSO. The small percentage of DMSO present in the wells (maximal 0.1%) was not found to affect the experiment.
After the end of the incubation period, the viable cell yield was determined by a colorimetric method. In brief, the process of treatment the media with crystal violet solution and measurement of absorbance at 590 nm using a microplate reader was mentioned above. The absorbance was proportional to the number of surviving cells in the culture plate. All the results were corrected for background absorbance detected in wells without added stain. Treated samples were compared with the cell control in the absence of the tested compounds. All experiments were carried out in triplicate. The cell cytotoxicity effect of each tested compound was calculated.
Statistics were done using a one-way ANOVA test, and the percentage cell viability was calculated using Microsoft Excel®, as follows: % Cell viability = [(Mean Abscontrol− Mean Abstest metabolite)/Mean Abscontrol] × 100 where Abs equals the absorbance at 590 nm. The CC50 was estimated from graphic plots and the STATA statistical analysis package was used for the drawing of the dose response curve, in order to calculate CC50. Concerning antiviral evaluation, all experiments and data analysis were performed in RCMB, Al-Azhar University, Cairo, Egypt.

SMILES | HSV-2 EC50 (HSV-2) | HSV-2 SI (HSV-2) | HSV-1 EC50 (HSV-1) | antiviral activity against HSV-1 in words (HSV-1) | HSV-1 SI (HSV-1) | CC50 (Vero cells) | activity class in terms of SI-values (HSV-2) (HSV-2) | activity class in terms of SI-values (HSV-1) (HSV-1) | antiviral activity against HSV-2 in words (HSV-2)
O=C1c2cccc3cccc(c23)C(=O)N1N1C(=O)c2cccc3cccc(c23)C1=O [Compound 22] | 428 ± 10.2 µg/mL | 1.3 | 74.6 ± 3.4 µg/mL | good antiviral effect | 7.5 | 560 ± 46 µg/mL (≈ 1430 µM) | – | – | –
O=C1CCC(=O)N1N1C(=O)c2cccc3cccc(c23)C1=O [Compound 19] | >500 µg/mL | – | >500 µg/mL | – | – | 220 ± 16 µg/mL (≈ 748 µM) | – | – | –
O=C1c2cccc3cccc(c23)C(=O)N1N=Cc1ccc(Cl)cc1Cl [Compound 11] | >500 µg/mL | – | >500 µg/mL | – | – | 316 ± 24 µg/mL (≈ 856 µM) | – | – | –
O=C1c2cccc3cccc(c23)C(=O)N1N=Cc1cccc([N+](=O)[O-])c1 [Compound 6] | >500 µg/mL | – | 174 ± 1.8 µg/mL | low activity | 1.8 | 316 ± 11 µg/mL (≈ 915 µM) | – | – | –
O=C1c2cccc3cccc(c23)C(=O)N1N=Cc1ccsc1 [Compound 15] | 56.7 ± 2.6 µg/mL | 3.2 | 16.2 ± 1.1 µg/mL | most active; also recorded: highest effects | 11.1 | 180 ± 8 µg/mL (≈ 588 µM) | active | – | –
O=C1C=CC(=O)N1N1C(=O)c2cccc3cccc(c23)C1=O [Compound 20] | >500 µg/mL | – | >500 µg/mL | – | – | 220 ± 16 µg/mL (≈ 753 µM) | – | – | –
O=C1c2cccc3cccc(c23)C(=O)N1N=Cc1ccccc1 [Compound 3] | >500 µg/mL | – | 158 ± 1.8 µg/mL | – | 1.2 | 196 ± 22 µg/mL (≈ 653 µM) | – | – | –
COc1cccc(C=NN2C(=O)c3cccc4cccc(c34)C2=O)c1 [Compound 5] | >500 µg/mL | – | 176 ± 4.6 µg/mL | low activity | 2.6 | 452 ± 9 µg/mL (≈ 1370 µM) | – | active | –
O=C1c2cccc3cccc(c23)C(=O)N1NC(=S)Nc1ccccc1 [Compound 17] | >500 µg/mL | – | 236 ± 4.9 µg/mL | low activity | 2.2 | 518 ± 34 µg/mL (≈ 1490 µM) | – | active | –
CCC=NN1C(=O)c2cccc3cccc(c23)C1=O [Compound 2] | >500 µg/mL | – | >500 µg/mL | – | – | 317 ± 13 µg/mL (≈ 1260 µM) | – | – | –
O=C1c2cccc3cccc(c23)C(=O)N1n1c(=O)c2cc3c(=O)oc(=O)c3cc2c1=O [Compound 23] | >500 µg/mL | – | 176 ± 2.4 µg/mL | low activity | 2.3 | 412 ± 18 µg/mL (≈ 999 µM) | – | – | –
O=C1c2cccc3cccc(c23)C(=O)N1N=Cc1cccnc1 [Compound 13] | 308 ± 7.1 µg/mL | 1.5 | 117.2 ± 3.1 µg/mL | – | 3.9 | 458 ± 27 µg/mL (≈ 1520 µM) | – | active | low activity
O=C1c2cccc3cccc(c23)C(=O)N1NC(=S)NC1CCCCC1 [Compound 18] | >500 µg/mL | – | 319 ± 3.7 µg/mL | low activity | 1.5 | 482 ± 14 µg/mL (≈ 1360 µM) | – | – | –
O=C1c2cccc3cccc(c23)C(=O)N1n1c(=O)c2cc3c(=O)n(N4C(=O)c5cccc6cccc(c56)C4=O)c(=O)c3cc2c1=O [Compound 24] | >500 µg/mL | – | >500 µg/mL | – | – | 386 ± 17 µg/mL (≈ 636 µM) | – | – | –
O=C1c2cccc3cccc(c23)C(=O)N1N=Cc1ccco1 [Compound 14] | 71.8 ± 1.8 µg/mL | 4.5 | 19.6 ± 0.9 µg/mL | most active; also recorded: highest effects | 16.4 | 321 ± 23 µg/mL (≈ 1110 µM) | active | – | –
O=C1c2ccccc2C(=O)N1N1C(=O)c2cccc3cccc(c23)C1=O [Compound 21] | 374 ± 3.7 µg/mL | 1.3 | 102 ± 5.8 µg/mL | good antiviral effect | 4.8 | 490 ± 21 µg/mL (≈ 1430 µM) | – | – | low activity
COc1ccccc1C=NN1C(=O)c2cccc3cccc(c23)C1=O [Compound 4] | 312 ± 9.6 µg/mL | 1.6 | 189 ± 3.2 µg/mL | – | 2.6 | 486 ± 18 µg/mL (≈ 1470 µM) | – | active | low activity
CN(C)c1ccc(C=NN2C(=O)c3cccc4cccc(c34)C2=O)cc1 [Compound 8] | >500 µg/mL | – | >500 µg/mL | – | – | 289 ± 13 µg/mL (≈ 842 µM) | – | – | –
COc1ccc(C=NN2C(=O)c3cccc4cccc(c34)C2=O)c(OC)c1 [Compound 10] | 416 ± 8.2 µg/mL | 0.9 | 149 ± 5.3 µg/mL | low activity | 2.6 | 380 ± 16 µg/mL (≈ 1050 µM) | – | active | low activity
CC=NN1C(=O)c2cccc3cccc(c23)C1=O [Compound 1] | >500 µg/mL | – | >500 µg/mL | – | – | 375 ± 25 µg/mL (≈ 1570 µM) | – | – | –
COc1cc(C=NN2C(=O)c3cccc4cccc(c34)C2=O)ccc1O [Compound 9] | 108 ± 4.1 µg/mL | 2.2 | 78.3 ± 1.5 µg/mL | good antiviral effect | 3.0 | 236 ± 8 µg/mL (≈ 681 µM) | active | active | –
C=CCNC(=S)NN1C(=O)c2cccc3cccc(c23)C1=O [Compound 16] | 292 ± 4.8 µg/mL | 0.3 | 17.8 ± 1.4 µg/mL | highest effects | 5.4 | 96 ± 12 µg/mL (≈ 308 µM) | – | active | –
O=C1c2cccc3cccc(c23)C(=O)N1N=Cc1ccc(O)cc1 [Compound 7] | 220 ± 3.8 µg/mL | 1.9 | 113 ± 4.6 µg/mL | good antiviral effect | 3.6 | 412 ± 24 µg/mL (≈ 1300 µM) | – | active | low activity
